From patent publication US20120282245A1, “BIOMARKERS AND ASSAYS FOR THE TREATMENT OF CANCER” (BIOGEN IDEC MA INC., priority 2006, published 2012)

How the values were obtained:
[1] = system: canonical NFκB1 pathway; experiment: Western blot for phosphorylated IκBα and RelA (canonical NFκB1 activation); format: cell-based; conditions: DLD-1 and WiDr cells, TNFα 20 ng/ml
Procedure: (§1) DLD-1 and WiDr adenocarcinoma cell lines were obtained from ATCC (Manassas, Va.), and cultured in MEM Earle's medium supplemented with 10% FBS. Antibodies against LTβR (N-15), TRAF3 (H-20 and H-122), TRAF2 (H-249), and NFκB2 (C-5) were obtained from Santa Cruz Biotechnology (Santa Cruz, Calif.). Antibodies against phosphorylated IκBα (5A5), phosphorylated RelA, and NIK were purchased from Cell Signaling Technologies (Beverly, Mass.).
LTβR was activated using 100 ng/ml of a humanized bi-specific, activating antibody (BS-1) developed at Biogen Idec, Inc. TNFα was used at a concentration of 20 ng/ml. During stimulation, cells were kept in a 37° C. incubator for indicated times.
(§2) Cells were treated for 10 minutes at 37° C. with media or activating antibody (BS-1) and washed twice in ice-cold PBS with protease and phosphatase inhibitors, followed by lysis by scraping in ice-cold lysis buffer [50 mM PIPES pH 6.8, 100 mM KCl, 2 mM MgCl2, 1 mM EGTA, 0.2% NP-40, and 10% Glycerol, supplemented with Complete EDTA-free protease inhibitor cocktail (Roche, Indianapolis, Ind.), 10 mM Sodium Fluoride, and 100 μM Sodium Orthovanadate]. […] Blots were developed using SuperSignal chemiluminescent detection substrates (Pierce), and detected on Biomax X-ray films (Kodak, Rochester, N.Y.) and/or directly on a Kodak ImageStation 2000R luminescence detector.

[2] = system: TRAF3; experiment: Western blot for TRAF3 protein level; format: cell-based; conditions: DLD-1 cells; BS-1 100 ng/ml or TNFα 20 ng/ml
Procedure: as §1
as §2, with “Orthovanadate]. Lysates were centrifuged at 14000 RPM for 30 minutes at 4° C., and supernatants were pre-cleared with normal goat IgG-agarose beads (Sigma, St. Louis, Mo.) by incubating on a rotator at 4° C.” for “Orthovanadate].”, “detector. […]” for “detector.”

## TNFα
[1]
  activation of NFκB1: identical in both cell-lines
[2]
  TRAF3 level after stimulation: increases the levels of TRAF3
